Test results taken from patent publication US20240366606A1, “MRGPRX2 ANTAGONISTS AND USES THEREOF” (The Regents of the University of California, priority 2021, published 2024).

What was measured:
MRGPRX4 [1] = molecular target: MRGPRX4 (Homo sapiens, UniProt Q96LA9, L83S); assay: Mutagenesis of MRGPRX4, agonist-stimulated Gq activation; format: cell-based
Protocol: (§1) Bioluminescence resonance energy transfer assay 2 (BRET2). To measure the receptor mediated G protein activation, HEK293T cells were plating either in six-well dishes containing 350-400 k cells per well, or 10-cm dishes at approximately 2 million per dish 20-24 h prior to transfection. The cells were then transfected with a 1:1:1:1 ratio of the receptor:GurLuc8:Gβ:GγGFP DNA. Transit 2020 (Mirus biosciences) was used to complex the DNA at a ratio of 3 μL Transit/μg DNA, in OptiMEM (GIBCO) at a concentration of 10 ng DNA per μL OptiMEM. After 24 h, the cells were plated in poly-L-lysine coated 96-well white clear bottom cell culture plates in plating media (DMEM+1% dialyzed FBS) at a density of 40-50,000 cells in 200 μl per well and incubated overnight. The next day, the media was carefully aspirated and cells were washed once with 60 μl of drug buffer (1×HBSS, 20 mM HEPES, 0.1% (w/v) BSA, pH 7.4), then 60 μl drug buffer containing coelenterazine 400a (nanolight technology) at 5 μM final concentration was added to each well and incubate for 5 min. Cells were then treated with 30 μl of 3× designated drug for an additional 5 minutes. After drug incubation, plates were read in an LB940 Mithras plate reader (Berthold Technologies) with a 395 nm (RLuc8-coelenterazine 400a) and 510 nm (GFP2) emission filters, at 1 s integration times. Each plate was read four times, and measurements from the fourth read were used in all analyses. BRET ratio was computed as the ratio of the GFP2 emission to rLuc8 emission. Data were normalized to % WT stimulation with indicated reference agonist and analyzed using nonlinear regression “log(agonist) vs. response” in GraphPad Prism 9.0. Log(agonist) vs normalized response—variable slope was used for (R)-ZINC-3573 pocket mutations (D184 Å, E164 Å, W243 Å, F244 Å, L247 Å, and W248 Å).

MRGPRX4 [2] = molecular target: MRGPRX4 (Homo sapiens, UniProt Q96LA9, Y130A); assay: as above; format: cell-based
Protocol: as §1

[3] = molecular target: Kir6.2/SUR1 potassium channel (Homo sapiens (Human), UniProt Q09428+Q14654); assay: Electrophysiology of Kir6.2/SUR1 in HEK293 cells; format: cell-based; settings: compared to nateglinide
Sequence of Kir6.2/SUR1 potassium channel (Q09428 whole entry, the tested form may be a part): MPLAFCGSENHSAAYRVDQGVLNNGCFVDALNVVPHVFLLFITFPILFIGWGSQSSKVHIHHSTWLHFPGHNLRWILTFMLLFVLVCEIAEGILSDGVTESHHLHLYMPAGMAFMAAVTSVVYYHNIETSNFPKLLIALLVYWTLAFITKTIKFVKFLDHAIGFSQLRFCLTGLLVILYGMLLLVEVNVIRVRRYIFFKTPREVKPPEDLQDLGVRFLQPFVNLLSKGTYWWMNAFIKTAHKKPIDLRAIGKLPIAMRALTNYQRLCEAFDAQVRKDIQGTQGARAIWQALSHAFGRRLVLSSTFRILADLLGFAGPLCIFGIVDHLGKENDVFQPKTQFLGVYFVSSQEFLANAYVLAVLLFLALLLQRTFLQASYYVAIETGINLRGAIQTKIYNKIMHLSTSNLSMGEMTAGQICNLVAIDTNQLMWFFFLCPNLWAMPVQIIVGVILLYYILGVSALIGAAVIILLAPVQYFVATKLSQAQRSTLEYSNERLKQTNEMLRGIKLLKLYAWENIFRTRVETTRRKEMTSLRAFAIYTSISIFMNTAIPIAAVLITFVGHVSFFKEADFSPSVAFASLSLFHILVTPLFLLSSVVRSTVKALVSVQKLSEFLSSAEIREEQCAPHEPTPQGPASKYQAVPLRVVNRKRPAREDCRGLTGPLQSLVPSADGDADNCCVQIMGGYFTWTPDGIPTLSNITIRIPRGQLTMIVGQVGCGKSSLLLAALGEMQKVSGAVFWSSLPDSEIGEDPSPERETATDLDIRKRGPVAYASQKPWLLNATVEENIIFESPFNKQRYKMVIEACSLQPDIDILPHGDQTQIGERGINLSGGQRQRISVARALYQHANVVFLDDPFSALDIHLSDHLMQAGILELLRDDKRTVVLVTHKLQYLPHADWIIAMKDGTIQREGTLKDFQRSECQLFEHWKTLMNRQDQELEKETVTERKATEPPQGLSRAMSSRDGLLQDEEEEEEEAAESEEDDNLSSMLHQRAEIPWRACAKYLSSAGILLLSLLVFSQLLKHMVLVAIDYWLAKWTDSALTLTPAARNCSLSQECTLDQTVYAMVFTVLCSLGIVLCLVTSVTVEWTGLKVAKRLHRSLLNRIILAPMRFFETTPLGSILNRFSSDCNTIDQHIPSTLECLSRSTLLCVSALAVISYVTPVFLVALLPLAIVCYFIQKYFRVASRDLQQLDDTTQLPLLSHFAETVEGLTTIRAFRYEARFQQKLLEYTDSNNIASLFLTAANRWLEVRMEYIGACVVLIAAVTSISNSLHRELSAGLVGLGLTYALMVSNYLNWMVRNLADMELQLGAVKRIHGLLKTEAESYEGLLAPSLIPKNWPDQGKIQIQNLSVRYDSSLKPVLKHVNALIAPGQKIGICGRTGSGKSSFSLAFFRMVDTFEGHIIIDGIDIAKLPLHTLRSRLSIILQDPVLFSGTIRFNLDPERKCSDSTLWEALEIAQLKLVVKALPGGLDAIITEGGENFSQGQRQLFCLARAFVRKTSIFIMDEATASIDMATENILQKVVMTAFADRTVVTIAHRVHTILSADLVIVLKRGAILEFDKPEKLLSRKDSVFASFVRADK
Sequence of Kir6.2/SUR1 potassium channel (Q14654 whole entry, the tested form may be a part): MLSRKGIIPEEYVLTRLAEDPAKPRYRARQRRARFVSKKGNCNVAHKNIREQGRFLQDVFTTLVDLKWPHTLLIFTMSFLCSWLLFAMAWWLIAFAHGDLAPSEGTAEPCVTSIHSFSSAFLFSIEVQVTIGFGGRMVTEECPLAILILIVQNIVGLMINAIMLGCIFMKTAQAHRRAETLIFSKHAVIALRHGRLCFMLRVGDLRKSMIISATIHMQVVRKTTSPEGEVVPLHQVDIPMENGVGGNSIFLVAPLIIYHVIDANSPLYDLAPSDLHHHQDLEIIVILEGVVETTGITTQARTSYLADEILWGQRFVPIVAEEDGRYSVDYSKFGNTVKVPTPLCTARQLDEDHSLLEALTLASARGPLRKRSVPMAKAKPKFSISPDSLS
Protocol: Electrophysiology. HEK293 cells were cultured in DMEM with 4.5 g L-^1 glucose, L-glutamine, and sodium pyruvate (Mediatech) containing 10% (v/v) FBS (Axenia BioLogix) and 1% (v/v) penicillin-streptomycin, at 37° C. and with 5% CO2. Cells were lifted with trypsin-EDTA (Life Technologies) and passaged to 6-well plates (Warner Instruments) 3-4 d before recording. Transient transfection was performed with Lipofectamine 2000 (Thermo Fisher Scientific) 2 days before recording. The plasmids of human Kir6.2 and SUR1 were the gift from Dr. Show-Ling Shyng (Oregon Health and Science University), and we fused mCherry fluorescent protein to the C-terminus of Kir6.2. The vector ratio for co-transfection of Kir6.2 to SUR1 was 1:10. Before recording, cells were lifted with trypsin-EDTA, kept in modified Tyrode's saline (140 mM NaCl, 5 mM KCl, 10 mM HEPES, 2 mM CaCl2), 1 mM MgCl2, 10 mM glucose, pH 7.2 ˜ 7.3 with HCl), and were used within 8 hours. For recording, an aliquot of cells was transferred to a recording chamber on a Nikon-TE2000 Inverted Scope (Nikon Instruments), and transfection was confirmed with fluorescent microscopy. The pipette solution contained: 145 mM KCl, 1 mM MgCl2, 5 mM EGTA, 2 mM CaCl2), 20 mM HEPES, 0.3 mM K2-ATP and 0.3 mM K2-ADP. Patch borosilicate pipettes (Sutter Instrument) were pulled from a Sutter P-97 puller with resistances of 2-3 MΩ. […]

320 GPCRs = assay: PRESTO-Tango GPCRome screening; format: cell-based; settings: 3 μM
Protocol: GPCRome Screening. Screening of compounds against the PRESTO-Tango GPCRome was accomplished using previously described methods with several modifications (63). First, HTLA cells were plated in white 384-well clear bottom plates (Greiner) in DMEM (Sigma) with 1% (v/v) dialyzed FBS and 10 U per mL penicillin-streptomycin (Gibco). After 24 h, the cells were transfected using PEI (Sigma) with an in-plate adapted method (64). Briefly, 17 ng per well PRESTO-Tango GPCR DNAs were resuspended in OptiMEM (Gibco) and hybridized with PEI prior to dilution and distribution into 384-well plates and subsequent addition to cells. After overnight incubation, MS47134 at 5× final concentration (3 μM) diluted in DMEM with 1% (v/v) dialyzed FBS were added to cells without replacement of the medium for 18-20 h. On the day of assay, medium and drug solution were dumped and loaded with 20 ul per well of Bright-Glo reagent (Promega). Plates were incubated for 20 min in the dark and the luminescence was counted for cells using SpectraMax Luminescence reader. Dopamine receptor D2 serves as an assay control with 0.1 mM Quinpirole. Data were analyzed using GraphPad Prism 9.0.

MRGPRX4 [4] = molecular target: T1, MRGPRX4 (Homo sapiens (Human), UniProt Q96LA9); assay: MRGPRX4 agonist activity (FLIPR Ca2+ assay, concentration-response); format: cell-based
T1 sequence (Q96LA9 whole entry): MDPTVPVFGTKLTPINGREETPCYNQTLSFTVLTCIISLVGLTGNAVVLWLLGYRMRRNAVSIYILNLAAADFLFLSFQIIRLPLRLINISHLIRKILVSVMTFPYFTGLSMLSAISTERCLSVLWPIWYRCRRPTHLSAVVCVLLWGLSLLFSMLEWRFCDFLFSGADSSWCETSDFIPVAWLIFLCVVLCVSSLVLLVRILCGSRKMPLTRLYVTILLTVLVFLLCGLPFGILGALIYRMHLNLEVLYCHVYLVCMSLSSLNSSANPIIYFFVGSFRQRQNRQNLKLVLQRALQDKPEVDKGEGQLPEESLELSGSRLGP
Protocol: FLIPR Ca2+ assay. Tetracycline inducible MRGPRX2 or MRGPRX4 stable cells [Flp-In™ T-REx™-293 cell which is derived from HEK 293 cells (ATCC, CRL 1573)] were maintained in DMEM containing 10% (v/v) FBS, 100 units ml^−1 penicillin G, 100 μg ml^−1 streptomycin, 100 μg ml^−1 hygromycin B, and 15 μg ml^−1 blasticidin ^16. NK1 stably expressing cell were maintained in DMEM containing 10% (v/v) FBS, 100 units ml^−1 penicillin G and 100 μg ml^−1 streptomycin. On the day of assay, cells were plated into Poly-L-Lysine (PLL) coated 384-well black clear bottom cell culture plates with DMEM buffer, which is composed of 1% (v/v) dialyzed FBS, 100 units ml^−1 penicillin G, 100 μg ml^−1 streptomycin with 1 μg ml^−1 tetracycline at density of 20,000 cells in 40 μl per well for overnight. For NK1 stable cells, the same media used for MRGPRX2 or MRGPRX4 cells except the tetracycline were used. […] Once loaded in FLIPR (Molecular Devices), basal fluorescence was measured for 10 s, then 10 μl of test compounds were added followed by continued fluorescence measurement for an additional 120 s. […] Data were normalized to % reference compound stimulation and analyzed using nonlinear regression “log(agonist) vs. response” in GraphPad Prism 9.0.

MRGPRX2 [5] = assay: BRET2 Gq activation, MRGPRX2 pocket mutants, HEK293T cells; format: cell-based, human
Protocol: as §1

MRGPRX2 [6] = molecular target: MRGPRX2 (Homo sapiens, UniProt Q96LB1, W243A); assay: as above; format: cell-based
Protocol: as §1

MRGPRX2 [7] = molecular target: MRGPRX2 (Homo sapiens, UniProt Q96LB1, F170A); assay: as above; format: cell-based
Protocol: as §1

MRGPRX4 [8] = molecular target: T1, MRGPRX4; settings: previously identified (ref. 17); cited from earlier work

**Q.** What does the source list for `C[C@]12CC3CC(C(=O)N[C@H](Cc4ccccc4)C(=O)O)(C1)C[C@@](C)(C3)C2` [MS47134]?
**A.** effect of L83S mutation on potency (MRGPRX4 [1]): greatly attenuated the potency; effect of Y130(ICL2)A mutation on potency of Gq activation (MRGPRX4 [2]): reduced the potency; improved selectivity for MRGPRX4 over the Kir6.2/SUR1 potassium channel [3]: 47 fold; off-target profiling at 320 GPCRs (320 GPCRs): activity only at MRGPRX4 and MRGPRX1; EC50 (MRGPRX4 [4]): 150 nM

**Q.** With `CN(C)[C@@H]1CCN(c2cc(-c3ccccc3)nc3ccnn23)C1` [(R)-ZINC-3573] as the compound, how does the “effect of substitution of D184(5.38) and E164(4.60) on efficacy” value (MRGPRX2 [5]) read?
**A.** impaired the efficacy

**Q.** With cortistatin-14 as the compound, how does the “effect of W243(6.55)A substitution on activity” value (MRGPRX2 [6]) read?
**A.** completely reduced the activity

**Q.** And the “reduction of potency by F170(ECL2)A mutation” value (MRGPRX2 [7])?
**A.** 7 fold

**Q.** For `CC(C)[C@H]1CC[C@H](C(=O)N[C@H](Cc2ccccc2)C(=O)O)CC1` [nateglinide, reference compound], which “effect of L83S mutation on potency” value (MRGPRX4 [1]) is on record?
**A.** greatly attenuated the potency

**Q.** And the “agonist potency at MRGPRX4” value (MRGPRX4 [8])?
**A.** low micromolar agonist
